Laboratory results taken from PMC13181795, “Structural Basis for BD1-Preferring 2,4-Disubstituted Pyrimidine BRDT Inhibitors” (Journal of Medicinal Chemistry, 2026).

Experiment: Metabolic stability in male mouse liver microsomes
Format: in vitro ADME

- Scaled-up CLint: 130 mL/min/kg
SMILES: O=C(O)Cc1ccccc1Nc1c(Cl)cccc1Cl [Diclofenac]
